PubChem BioAssay (NCI)
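48-hour exposure; five concentrations; linearly interpolated endpoints. TGI marks complete inhibition of growth.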

Columns and labels:
Test in all cases: NCI tumour cell line growth inhibition, 48 h
SR leukemia = system: SR leukemia
SN12C renal = system: SN12C renal
RXF 393 renal = system: RXF 393 renal
NCI-H522 lung = system: NCI-H522 lung
SNB-75 CNS = system: SNB-75 CNS
XF 498 CNS = system: XF 498 CNS
SNB-19 CNS = system: SNB-19 CNS
SK-MEL-5 melanoma = system: SK-MEL-5 melanoma
LXFL 529 NSCLC = system: LXFL 529 NSCLC
SW-620 colon = system: SW-620 colon
SF-295 CNS = system: SF-295 CNS
UO-31 renal = system: UO-31 renal
SF-539 CNS = system: SF-539 CNS
RXF-631 renal = system: RXF-631 renal
HCT-15 colon = system: HCT-15 colon
CCRF-CEM leukemia = system: CCRF-CEM leukemia
SK-OV-3 ovarian = system: SK-OV-3 ovarian
M14 melanoma = system: M14 melanoma
UACC-62 melanoma = system: UACC-62 melanoma
TK-10 renal = system: TK-10 renal
DU-145 prostate = system: DU-145 prostate
A498 renal = system: A498 renal
HT29 colon = system: HT29 colon
OVCAR-5 ovarian = system: OVCAR-5 ovarian
SNB-78 CNS = system: SNB-78 CNS
DLD-1 colon = system: DLD-1 colon
COLO 205 colon = system: COLO 205 colon
NCI-H23 lung = system: NCI-H23 lung
U251 CNS = system: U251 CNS
786-0 renal = system: 786-0 renal
CAKI-1 renal = system: CAKI-1 renal
LOX IMVI melanoma = system: LOX IMVI melanoma
SK-MEL-28 melanoma = system: SK-MEL-28 melanoma
K-562 leukemia = system: K-562 leukemia
RPMI-8226 leukemia = system: RPMI-8226 leukemia
MALME-3M melanoma = system: MALME-3M melanoma
MOLT-4 leukemia = system: MOLT-4 leukemia
UACC-257 melanoma = system: UACC-257 melanoma
M19-MEL melanoma = system: M19-MEL melanoma
HOP-92 NSCLC = system: HOP-92 NSCLC
HOP-18 NSCLC = system: HOP-18 NSCLC
SF-268 CNS = system: SF-268 CNS
HCC-2998 colon = system: HCC-2998 colon
NCI-H226 lung = system: NCI-H226 lung
IGROV1 ovarian = system: IGROV1 ovarian
OVCAR-3 ovarian = system: OVCAR-3 ovarian
ACHN renal = system: ACHN renal
OVCAR-4 ovarian = system: OVCAR-4 ovarian
KM12 colon = system: KM12 colon
KM20L2 colon = system: KM20L2 colon
HCT-116 colon = system: HCT-116 colon
NCI-H460 lung = system: NCI-H460 lung
A549 NSCLC = system: A549 NSCLC
HL-60(TB) leukemia = system: HL-60(TB) leukemia
SK-MEL-2 melanoma = system: SK-MEL-2 melanoma
OVCAR-8 ovarian = system: OVCAR-8 ovarian
BT-549 breast = system: BT-549 breast
DMS 273 small cell lung = system: DMS 273 small cell lung
MDA-N = system: MDA-N
MCF7 breast = system: MCF7 breast
EKVX NSCLC = system: EKVX NSCLC
DMS 114 small cell lung = system: DMS 114 small cell lung
HOP-62 NSCLC = system: HOP-62 NSCLC
MDA-MB-435 = system: MDA-MB-435
HS 578T breast = system: HS 578T breast
PC-3 prostate = system: PC-3 prostate
MDA-MB-231 breast = system: MDA-MB-231 breast

## C=CCOCCCC(=O)C(=[N+]=[N-])C(=O)OC
SR leukemia
  TGI: > 100 µM
SN12C renal
  TGI: > 100 µM
RXF 393 renal
  TGI: > 100 µM
NCI-H522 lung
  TGI: > 100 µM
SNB-75 CNS
  TGI: > 100 µM
XF 498 CNS
  TGI: > 100 µM
SNB-19 CNS
  TGI: > 100 µM
SK-MEL-5 melanoma
  TGI: > 100 µM
LXFL 529 NSCLC
  TGI: > 100 µM
SW-620 colon
  TGI: > 100 µM
SF-295 CNS
  TGI: > 100 µM
UO-31 renal
  TGI: > 100 µM
SF-539 CNS
  TGI: > 100 µM
RXF-631 renal
  TGI: > 100 µM
HCT-15 colon
  TGI: > 100 µM
CCRF-CEM leukemia
  TGI: > 100 µM
SK-OV-3 ovarian
  TGI: > 100 µM
M14 melanoma
  TGI: > 100 µM
UACC-62 melanoma
  TGI: > 100 µM
TK-10 renal
  TGI: > 100 µM
DU-145 prostate
  TGI: > 100 µM
A498 renal
  TGI: > 100 µM
HT29 colon
  TGI: > 100 µM
OVCAR-5 ovarian
  TGI: > 100 µM
SNB-78 CNS
  TGI: > 100 µM
DLD-1 colon
  TGI: > 100 µM
COLO 205 colon
  TGI: > 100 µM
NCI-H23 lung
  TGI: > 100 µM
U251 CNS
  TGI: > 100 µM
786-0 renal
  TGI: > 100 µM
CAKI-1 renal
  TGI: > 100 µM
LOX IMVI melanoma
  TGI: > 100 µM
SK-MEL-28 melanoma
  TGI: > 100 µM
K-562 leukemia
  TGI: > 100 µM
RPMI-8226 leukemia
  TGI: > 100 µM
MALME-3M melanoma
  TGI: > 100 µM
MOLT-4 leukemia
  TGI: > 100 µM
UACC-257 melanoma
  TGI: > 100 µM
M19-MEL melanoma
  TGI: > 100 µM
HOP-92 NSCLC
  TGI: > 100 µM
HOP-18 NSCLC
  TGI: > 100 µM
SF-268 CNS
  TGI: > 100 µM
HCC-2998 colon
  TGI: > 100 µM
NCI-H226 lung
  TGI: > 100 µM
IGROV1 ovarian
  TGI: > 100 µM
OVCAR-3 ovarian
  TGI: > 100 µM
ACHN renal
  TGI: > 100 µM
OVCAR-4 ovarian
  TGI: > 100 µM
KM12 colon
  TGI: > 100 µM
KM20L2 colon
  TGI: > 100 µM
HCT-116 colon
  TGI: > 100 µM
NCI-H460 lung
  TGI: > 100 µM
A549 NSCLC
  TGI: > 100 µM
HL-60(TB) leukemia
  TGI: > 100 µM
SK-MEL-2 melanoma
  TGI: > 100 µM
OVCAR-8 ovarian
  TGI: > 100 µM

## O=C1C(Br)=C(c2ccccc2)C(c2ccccc2)=C1c1ccccc1
SR leukemia
  TGI: 3.78 µM
SN12C renal
  TGI: 3.85 µM
RXF 393 renal
  TGI: 3.92 µM
NCI-H522 lung
  TGI: 1.77 µM
SNB-75 CNS
  TGI: 12.9 µM
XF 498 CNS
  TGI: 3.65 µM
SNB-19 CNS
  TGI: 24.2 µM
SK-MEL-5 melanoma
  TGI: 9.35 µM
BT-549 breast
  TGI: 10.9 µM
DMS 273 small cell lung
  TGI: 3.68 µM
LXFL 529 NSCLC
  TGI: 2.84 µM
SW-620 colon
  TGI: 3.26 µM
MDA-N
  TGI: 9.61 µM
SF-295 CNS
  TGI: 23.5 µM
UO-31 renal
  TGI: 12.8 µM
SF-539 CNS
  TGI: 8.07 µM
MCF7 breast
  TGI: 7.68 µM
RXF-631 renal
  TGI: 13.1 µM
HCT-15 colon
  TGI: 4.03 µM
CCRF-CEM leukemia
  TGI: 2.02 µM
SK-OV-3 ovarian
  TGI: 29.3 µM
M14 melanoma
  TGI: 4.46 µM
UACC-62 melanoma
  TGI: 5.73 µM
TK-10 renal
  TGI: 7.12 µM
EKVX NSCLC
  TGI: 18 µM
DMS 114 small cell lung
  TGI: 5.03 µM
DU-145 prostate
  TGI: 25.9 µM
HOP-62 NSCLC
  TGI: 23 µM
A498 renal
  TGI: 29.9 µM
MDA-MB-435
  TGI: 12.5 µM
HT29 colon
  TGI: 5.15 µM
OVCAR-5 ovarian
  TGI: 25.5 µM
SNB-78 CNS
  TGI: 4.26 µM
DLD-1 colon
  TGI: 3.66 µM
COLO 205 colon
  TGI: 3.69 µM
NCI-H23 lung
  TGI: 10.5 µM
U251 CNS
  TGI: 9.83 µM
786-0 renal
  TGI: 4.26 µM
CAKI-1 renal
  TGI: 6.06 µM
LOX IMVI melanoma
  TGI: 2.94 µM
SK-MEL-28 melanoma
  TGI: 6.75 µM
K-562 leukemia
  TGI: 9.93 µM
HS 578T breast
  TGI: 40.5 µM
RPMI-8226 leukemia
  TGI: 5.22 µM
MALME-3M melanoma
  TGI: 3.33 µM
MOLT-4 leukemia
  TGI: 3.74 µM
UACC-257 melanoma
  TGI: 9.67 µM
M19-MEL melanoma
  TGI: 5.58 µM
HOP-92 NSCLC
  TGI: 3.84 µM
HOP-18 NSCLC
  TGI: 14.9 µM
PC-3 prostate
  TGI: 16.2 µM
SF-268 CNS
  TGI: 7.52 µM
HCC-2998 colon
  TGI: 15.9 µM
MDA-MB-231 breast
  TGI: 6.05 µM
NCI-H226 lung
  TGI: 21.8 µM
IGROV1 ovarian
  TGI: 10.6 µM
OVCAR-3 ovarian
  TGI: 6.37 µM
ACHN renal
  TGI: 6.51 µM
OVCAR-4 ovarian
  TGI: 4.98 µM
KM12 colon
  TGI: 18.5 µM
KM20L2 colon
  TGI: 13.1 µM
HCT-116 colon
  TGI: 3.6 µM
NCI-H460 lung
  TGI: 18 µM
A549 NSCLC
  TGI: 28.1 µM
HL-60(TB) leukemia
  TGI: 2.31 µM
SK-MEL-2 melanoma
  TGI: 14.4 µM
OVCAR-8 ovarian
  TGI: 4.46 µM
